The conditions of data set [1]: hypertensives; 5-7 mM (310-434 mg/L/day) nitrate; cited from earlier work.

The structures appear in SMILES notation. Like-named read-outs stand apart in the source and are kept apart here. Some results are limits rather than exact numbers.

Consider `O=[N+]([O-])[O-].[K+]` [KNO3, potassium nitrate], for which, where the note is “ingestion”, the salivary nitrite result is recorded as “elevated”. In addition, the “Salivary NO2” value is, setting by setting: (subject 1, 500 mg KNO3 (5 mg/Kg) at 8:00, time 1:00PM) 120 µM; (subject 1, 500 mg KNO3 (5 mg/Kg) at 8:00, time 2:00) 110 µM; (subject 1, 500 mg KNO3 (5 mg/Kg) at 8:00, time 2:45) less than 20 µM; (subject 1, 500 mg KNO3 (5 mg/Kg) at 8:00, time 9:00) 400 µM; (subject 1, 500 mg KNO3 (5 mg/Kg) at 8:00, time 11:00) 220 µM; (subject 1, 500 mg KNO3 (5 mg/Kg) at 8:00, time 11:40) 110 µM. In addition, the “Salivary NO2” value (subject 2, 1,000 mg KNO3 (12 mgNO3/Kg) at 10:00, time 3:00) amounted to 220 µM; the “Salivary NO2” value (subject 2, 1,000 mg KNO3 (12 mgNO3/Kg) at 10:00, time 4:00) was 110 µM; the “Salivary NO2” value (subject 2, 1,000 mg KNO3 (12 mgNO3/Kg) at 10:00, time 5:45) was 20 µM; the “Salivary NO2” value (subject 2, 1,000 mg KNO3 (12 mgNO3/Kg) at 10:00, time 10:30) came out at 200 µM.
For the molecule `O=C1O[C@H]([C@@H](O)CO)C(O)=C1O` [ascorbate], the “nitric oxide bioavailability (salivary nitrite as surrogate marker)” value (human, in vivo) was “boosted and extended”.
Consider `O=[N+]([O-])O` [nitrate], for which, in data set [1], the “reduction of systolic blood pressure” value was 4-11 mmHg.

Values taken from patent publication US11844811B2, “Methods and compositions for alleviating respiratory dysfunction” (MYFITSTRIP LLC, priority 2018, dated 2023).
